Data set [1] has as its system IL-1β cytokine output from THP-1 cells. The data set can be described thus: THP-1 AlphaLISA IL-1β cytokine assay. Particulars: Homo sapiens, THP-1, differentiated THP-1 cells, LPS 24 hr then Nigericin 1 hour. Format: cell-based. On the procedure:
(§1) Measuring Inhibitory Effects on IL-1β and IL-6 Cytokine Output from THP-1s
(§2) The cytokine inhibition profiles of compounds of formula (I) were determined in a differentiated THP-1 cell assay. All assays were performed in RPMI-1640 growth medium (Gibco), supplemented with 10% fetal bovine serum (FBS; Gibco), 1% penicillin-streptomycin and 1% sodium pyruvate unless specified otherwise. The IL-1β and IL-6 cytokine inhibition assays were each run in a background of differentiated THP-1 cells as described below. All reagents described were from Sigma-Aldrich unless specified otherwise. Compounds were prepared as 10 mM DMSO stocks.
(§3) THP-1 cells were expanded as a suspension up to 80% confluence in appropriate growth medium. Cells were harvested, suspended, and treated with an appropriate concentration of phorbol 12-myristate 13-acetate (PMA) over a 72 hr period (37° C./5% CO2).
(§4) Following 72 hrs of THP-1 cell incubation, cellular medium was removed and replaced with fresh growth media containing 1% of FBS. Working concentrations of compounds were prepared separately in 10% FBS treated growth medium and pre-incubated with the cells for 30 minutes (37° C./5% CO2). Following the 30 minute compound pre-incubation, THP-1s were treated with an appropriate concentration of LPS and the THP-1s were subsequently incubated for a 24 hr period (37° C./5% CO2). An appropriate final concentration of Nigericin was then dispensed into the THP-1 plates and incubated for 1 hour (37° C./5% CO2) before THP-1 supernatants were harvested and collected in separate polypropylene 96-well holding plates.
(§5) Reagents from each of the […] and IL-6 commercial kits (Perkin Elmer) were prepared and run according to the manufacturer's instructions. Subsequently, fluorescence signal detection in a microplate reader was measured (EnVision® Multilabel Reader, Perkin Elmer).
(§6) Percentage inhibition was calculated per cytokine by normalising the sample data to the high and low controls used within each plate (+/−LPS respectively). Percentage inhibition was then plotted against compound concentration and the 50% inhibitory concentration (IC50) was determined from the resultant concentration-response curve.
(In general: Bead proximity is the source of the signal in Alpha formats.)

The test system of data set [2] is hepatocytes. Description: Hepatocyte stability assay, human. Format: in vitro ADME. The settings on record: 10 μM compound, 0.5×10^6 cells/mL, 60 min. From the text:
(§7) Defrosted cryo-preserved hepatocytes (viability>70%) may be used to determine the metabolic stability of a compound via calculation of intrinsic clearance (Clint; a measure of the removal of a compound from the liver in the absence of blood flow and cell binding). Clearance data are particularly important for in vitro work as they can be used in combination with in vivo data to predict the half-life and oral bioavailability of a drug.
(§8) The metabolic stability in hepatocytes assay involves a time-dependent reaction using both positive and negative controls. The cells were pre-incubated at 37° C. and spiked with test compound (and positive control); samples were taken at pre-determined time intervals and analysed to monitor the change in concentration of the initial drug compound over 60 minutes. A buffer incubation reaction (with no hepatocytes present) acted as a negative control and two cocktail solutions, containing compounds with known high and low clearance values (verapamil/7-hydroxycoumarin and propranolol/diltiazem), acted as positive controls. • 1. The assay was run with a cell concentration of 0.5×10^6 cells/mL in Leibovitz buffer. • 2. All compounds and controls were run in duplicate. • 3. Compound concentration was 10 μM. • 4. All compounds and controls were incubated with both cells and buffer to show turnover was due to hepatic metabolism. • 5. All wells on the incubation plate had 326.7 μL of either cells or buffer added. • 6. Prior to assay, cell and buffer-only incubation plates were preincubated for 10 mins at 37° C. • 7. The assay was initiated by adding compounds, 3.3 μL of 1 mM in 10% DMSO-90% Buffer; final DMSO concentration is 0.1%. • 8. Samples were taken at regular timepoints (0, 5, 10, 20, 40, 60 min) until 60 mins. • 9. Sample volume was 40 μL and was added to 160 μL of crash solvent (acetonitrile with internal standard) and stored on ice. • 10. At the end of the assay, the crash plates were centrifuged at 3500 rpm for 20 mins at 4° C. • 11. 80 μL of clear supernatant was removed and mixed with 80 μL of deionised water before being analysed by LC-MS/MS.
(§9) Raw LC-MS/MS data was exported to, and analysed in, Microsoft Excel for determination of intrinsic clearance. The percentage remaining of a compound was monitored using the peak area of the initial concentration as 100%. Intrinsic clearance and half-life values were calculated using a graph of the natural log of percentage remaining versus the time of reaction in minutes. Half-life (min) and intrinsic clearance (Clint in μL min^−1 10^−6 cells) values were calculated using the gradient of the graph (the elimination rate constant, k) and Equations 1 and 2.

Data set [3] in a line: Hepatocyte stability assay, human. Format: in vitro ADME. Particulars: cryopreserved hepatocytes, 10 μM compound, 0.5×10^6 cells/mL, 60 min, read-out: T½.
Source text: as §7, §8, §9

The subject of data set [4] is hepatocytes. Description: Hepatocyte stability assay, mouse. Format: in vitro ADME. The settings on record: 10 μM compound, 0.5×10^6 cells/mL, 60 min.
Source text: as §7, §8, §9

Data set [5] in a line: Hepatocyte stability assay, mouse. Particulars: cryopreserved hepatocytes, 10 μM compound, 0.5×10^6 cells/mL, 60 min, read-out: T½. Format: in vitro ADME.
Source text: as §7, §8, §9

For data set [6], the system named is IL-6 cytokine output from THP-1 cells. The data set can be described thus: THP-1 AlphaLISA IL-6 cytokine assay. Format: cell-based. The settings on record: Homo sapiens, THP-1, differentiated THP-1 cells, LPS 24 hr then Nigericin 1 hour. On the procedure:
as §1, §2, §3, §4, §5, §6

The subject of data set [7] is NRF2 (nuclear factor erythroid 2-related factor 2). Description: NRF2 +/−GSH activation assay (DiscoverX PathHunter NRF2 translocation kit, U2OS cells). The settings on record: Homo sapiens; for Emax: U2OS, normalised to dimethyl fumarate high control; for EC50: U2OS PathHunter cells, 6 hours. Format: cell-based.
Setting [8] is: +GSH, 30 minute compound-GSH pre-incubation.

As a reminder, the IC50 is the point on the concentration scale where inhibition reaches its midpoint. High values mean lower potency, low ones higher potency. A word on the Emax: it is the maximal effect, on the per cent scale that the assay sets. As usually defined, the EC50 is the concentration giving half of the maximal effect.

On to `C=C(CC(=O)OC1(c2ccc(Br)cc2)CCC1)C(=O)OCC(=O)O` [Example 3, 2-((4-(1-(4-bromophenyl)cyclobutoxy)-2-methylene-4-oxobutanoyl)oxy)acetic acid], for which the values for the IC50 in data set [1] and in data set [6] were 12.1 µM and 11.3 µM, respectively. The figures for the CIint in data set [2] and in data set [4] were 9 μL min^−1 10^−6 cells and 95 μL min^−1 10^−6 cells, respectively. The values for the half-life at 10 μM in data set [3] and in data set [5] were 2.9 h and 0.333 h, respectively.
As to `C=C(CC(=O)OC1(c2ccc(OC(F)(F)F)cc2Cl)CCC1)C(=O)OCC(=O)O` [Example 6, 2-((4-(1-(2-chloro-4-(trifluoromethoxy)phenyl)cyclobutoxy)-2-methylene-4-oxobutanoyl)oxy)acetic acid], it took 12.7 µM to reach half-maximal inhibition in data set [1] (IC50). Besides, the figures for the CIint in data set [2] and in data set [4] were 18 μL min^−1 10^−6 cells and greater than 460 μL min^−1 10^−6 cells, respectively. For the same molecule, the half-life at 10 μM was 1.42 h in data set [3] and less than 0.05 h in data set [5]. Also, the maximum response (Emax) in data set [7] (+GSH) was 187%; in data set [7] (−GSH), 219%. For the same molecule, the half-maximal effective concentration (EC50) in data set [7] (setting [8]) is 15.4 µM; in data set [7] (−GSH), 11.9 µM.
Take `C=C(CC(=O)OC1(c2ccc(OC(F)(F)F)cc2)CCC1)C(=O)OCC(=O)O` [Example 9, 2-((2-methylene-4-oxo-4-(1-(4-(trifluoromethoxy)phenyl)cyclobutoxy)butanoyl)oxy)acetic acid]: the 50% inhibitory concentration (IC50) in data set [1] is 12.1 µM. Further, the CIint in data set [2] was found to be 6 μL min^−1 10^−6 cells; in data set [4], 66 μL min^−1 10^−6 cells. Also, the half-life at 10 μM in data set [3] worked out at 4.18 h; in data set [5], 0.483 h. Besides, the Emax worked out at 182% in data set [7] (+GSH) and 210% in data set [7] (−GSH). Also, the EC50 stood at 7.3 µM in data set [7] (setting [8]) and 5.1 µM in data set [7] (−GSH).
Molecule `C=C(CC(=O)OC1(c2ccc(Cl)cc2Cl)CCC1)C(=O)OCC(=O)O` [Example 10, 2-((4-(1-(2,4-dichlorophenyl)cyclobutoxy)-2-methylene-4-oxobutanoyl)oxy)acetic acid] showed a half-inhibitory concentration (IC50) in data set [1] of 11.3 µM. For the same molecule, the values for the CIint in data set [2] and in data set [4] were 14 μL min^−1 10^−6 cells and 187 μL min^−1 10^−6 cells, respectively. Also, the half-life at 10 μM in data set [3] is 1.78 h; in data set [5], 0.133 h. In addition, the figures for the maximum response (Emax) in data set [7] (+GSH) and in data set [7] (−GSH) were 175% and 236%, respectively. In addition, the half-maximal effective concentration (EC50) in data set [7] (setting [8]) stood at 11.6 µM; in data set [7] (−GSH), 8.3 µM.
Molecule `C=C(CC(=O)OC1(c2ccc(C(F)(F)F)cc2Cl)CCC1)C(=O)OCC(=O)O` [Example 11, 2-((4-(1-(2-chloro-4-(trifluoromethyl)phenyl)cyclobutoxy)-2-methylene-4-oxobutanoyl)oxy)acetic acid] showed a half-inhibitory concentration (IC50) in data set [1] of 9 µM. Besides, the CIint is given as 10 μL min^−1 10^−6 cells in data set [2] and 100 μL min^−1 10^−6 cells in data set [4]. For the same molecule, the half-life at 10 μM in data set [3] is 2.53 h; in data set [5], 0.25 h. Moreover, the Emax in data set [7] (+GSH) is 160%; in data set [7] (−GSH), 214%. For the same molecule, the results for the EC50 in data set [7] (setting [8]) and in data set [7] (−GSH) were 5.1 µM and 3 µM, respectively.
In data set [1], `C=C(CC(=O)OC1(c2ccc(Br)cc2Cl)CCC1)C(=O)OCC(=O)O` [Example 12, 2-((4-(1-(4-bromo-2-chlorophenyl)cyclobutoxy)-2-methylene-4-oxobutanoyl)oxy)acetic acid] displayed an IC50 of 8.8 µM. Also, the CIint in data set [2] is reported as 23 μL min^−1 10^−6 cells; in data set [4], 239 μL min^−1 10^−6 cells. The results for the half-life at 10 μM in data set [3] and in data set [5] were 1.07 h and 0.1 h, respectively. Besides, the figures for the maximum response (Emax) in data set [7] (+GSH) and in data set [7] (−GSH) were 158% and 217%, respectively. The EC50 worked out at 7.9 µM in data set [7] (setting [8]) and 5.2 µM in data set [7] (−GSH).
Regarding `C=C(CC(=O)OC1(c2cc(Cl)c(OC)c(Cl)c2)CCC1)C(=O)OCC(=O)O` [Example 18, 2-((4-(1-(3,5-dichloro-4-methoxyphenyl)cyclobutoxy)-2-methylene-4-oxobutanoyl)oxy)acetic acid], in data set [1], the half-inhibitory concentration (IC50) came out at 9.9 µM. In addition, the figures for the CIint in data set [2] and in data set [4] were 13 μL min^−1 10^−6 cells and 58 μL min^−1 10^−6 cells, respectively. The results for the half-life at 10 μM in data set [3] and in data set [5] were 1.82 h and 0.433 h, respectively.
In turn, `C=C(CC(=O)OC1(c2cc(F)c(C(F)(F)F)c(F)c2)CCC1)C(=O)OCC(=O)O` [Example 19, 2-((4-(1-(3,5-difluoro-4-(trifluoromethyl)phenyl)cyclobutoxy)-2-methylene-4-oxobutanoyl)oxy)acetic acid] yielded an IC50 in data set [1] of 4.4 µM. Further, the values for the CIint in data set [2] and in data set [4] were 8 μL min^−1 10^−6 cells and 66 μL min^−1 10^−6 cells, respectively. The figures for the half-life at 10 μM in data set [3] and in data set [5] were 3.12 h and 0.383 h, respectively.
In turn, `C=C(CC(=O)OC1(c2ccc(C)c(Cl)c2)CCC1)C(=O)OCC(=O)O` [Example 20, 2-((4-(1-(3-chloro-4-methylphenyl)cyclobutoxy)-2-methylene-4-oxobutanoyl)oxy)acetic acid] came in with an IC50 in data set [1] of 8.7 µM. Moreover, the CIint in data set [2] was found to be 15 μL min^−1 10^−6 cells; in data set [4], 77 μL min^−1 10^−6 cells. The half-life at 10 μM in data set [3] worked out at 1.4 h; in data set [5] it was 0.433 h.
As for `C=C(CC(=O)OC1(c2ccc(C(F)(F)F)cc2)CC1)C(=O)OCC(=O)O` [Example 30, 2-((2-methylene-4-oxo-4-(1-(4-(trifluoromethyl)phenyl)cyclopropoxy)butanoyl)oxy)acetic acid], the IC50 in data set [1] was 16.7 µM; in data set [6] it was greater than 100 µM. Besides, the figures for the CIint in data set [2] and in data set [4] were 16 μL min^−1 10^−6 cells and 33 μL min^−1 10^−6 cells, respectively. Further, the results for the half-life at 10 μM in data set [3] and in data set [5] were 1.43 h and 0.65 h, respectively.
As to `C=C(CC(=O)OC1(c2ccc(C(F)(F)F)cc2)COC1)C(=O)OCCC(=O)O` [Example 32, 3-((2-methylene-4-oxo-4-((3-(4-(trifluoromethyl)phenyl)oxetan-3-yl)oxy)butanoyl)oxy)propanoic acid], the half-maximal inhibitory concentration (IC50) worked out at 7.4 µM in data set [1] and 11.9 µM in data set [6]. The figures for the CIint in data set [2] and in data set [4] were 4 μL min^−1 10^−6 cells and 36 μL min^−1 10^−6 cells, respectively. The half-life at 10 μM in data set [3] was found to be 6.78 h; in data set [5], 0.683 h.

(Values after US20230399289A1, “ITACONIC ACID DERIVATIVES” (Sitryx Therapeutics Limited, priority 2020, published 2023).)
